# Measurements: US10016356B2, “Sebum secretion inhibitory agent” (BASF Beauty Care Solutions France S.A.S., priority 2008, dated 2018)
# Assays:
# [1] = tested on: squalene synthesis on explants of normal human skin; assay: Biosynthesis of squalene from 4-14C mevalonate on explants of normal human skin (in vitro); assay type: cell-based; conditions: percentage relative to untreated negative control; extracts of culture media; 24 h; n=3 biopsies; extract at 2%, zinc gluconate at 1%
# Experimental: The principle of this evaluation is based on the measurement of the biosynthesis of squalene, a specific tracer of the production of human sebum by the sebocytes, from radiolabelled mevalonic acid.
# 1) Freshly taken biopsies of human skin (n=3) are incubated in 5 ml of culture medium in the presence or absence of the test products for 24 h.
# 2) An amount of radioactive products of 2 μCi of mevalonate 4-^14C is then added to the biopsies and the whole is incubated again for 24 h.
# 3) Extraction of the culture media and of the surface of the skin is carried out with isopropyl ether, then the skin samples are dried and weighed as dry weight.
# 4) The extraction products are analysed by thin-layer chromatography and the quantity of metabolites of ^14C-mevalonate (squalene) is evaluated.
# The squalene on the surface of the skin in culture is extracted, then deposited on HPTLC (high-performance thin layer chromatography) plates and migrated after addition of 10 μg of a squalene standard by deposition in the presence of heptane as migration solvent. The radioactivity of the squalene is visualized in a conventional manner. Each radioactive spot corresponding to squalene is scraped onto the HPTLC plates and the radioactivity is measured using a scintillation counter. Each count was expressed in grams of dry tissue. […]
# [2] = tested on: Caucasian and Asian volunteers; assay: Clinical assessment of pore size and shiny appearance in volunteers applying the product once a day; assay type: in vivo, human; conditions: after 28 days of treatment, extract at 2%, zinc gluconate 1%
# Experimental: (§1) Caucasian and Asian volunteers applied a test product once a day, in blind conditions. Clinical and instrumental assessments, by application of Sebutape™ patches, were carried out on D0, D14 and D28 and the contents of these samples of Sebutape™ patches were analysed quantitatively by image analyser (polarimetric imaging). Determination of the squalene taken in the Sebutape™ patches was carried out as follows:
# (§2) The experiment was conducted on Caucasian and Asian volunteers according to the conditions described in Example 3 for 28 days of treatment (last application on D27 in the evening). Assessments carried out on D30 allowed the persistence of the effect of an extract according to the invention on the production of sebum to be evaluated, two days after stopping the treatment.
# [3] = tested on: Caucasian and Asian volunteers; assay: Determination of squalene in Sebutape patches (HPTLC, densitometry); assay type: in vivo, human; conditions: after 28 days of treatment; zinc gluconate 1%
# Experimental: (§3) The principle of this evaluation is based on the clinical and instrumental analysis of samples of secretions of sebum using Sebutape™ patches according to the conventional method.
# as §1
# The Sebutape™ patches were treated by extraction with 10 ml of ether. The lipid residues were deposited on an HPTLC silica gel nanoplate on an aluminium support, one lane of which was reserved for receiving a deposit of 10 μg of squalene standard.
# The contents of the plates were subjected to migration in heptane.
# The squalene spots were then quantified by densitometry using an instrument of the ChromatoScan CS-93 (Shimadzu) type. Reading was based on absorption at 450 nm and the area of the peaks was expressed in arbitrary units in the table of results given below.
# [4] = tested on: Caucasian and Asian volunteers; assay: Number of active sebaceous glands (number of spots on Sebutape patches, image analysis); assay type: in vivo, human; conditions: extract at 2%, zinc gluconate 1%
# Experimental: as §3, §1
# At 28 days of treatment, the number of active sebaceous glands had decreased by 7.4% in the subjects who had applied the extract according to Example 1a) at 2% (measurement of the number of spots present on the patches compared against D0).
# as §2
# Asian volunteers = assay: Self-evaluation of skin texture (refinement of skin grain); assay type: in vivo, human; conditions: 2 days after stopping the 28-day treatment, extract at 2%, zinc gluconate positive control
# Experimental: as §2
# Moreover, 2 days after stopping the treatment, 71% of the Asian volunteers who had applied the extract according to Example 1a) at 2% declared that there was refinement of their skin grain (p<0.05). In comparison, only 52% of the volunteers in the group of volunteers who had applied the positive control (zinc gluconate) noticed an improvement in this parameter.
substance,measurement,setting,value
zinc gluconate,"Measurement of squalene synthesis, Mean value",[1],76.6%
same,pore size reduced by (clinical assessment),[2],17.5%
same,change of content of squalene in the sebum (signed),[3],−14%
same,"Active sebaceous glands, % Dn/D 0",[4]; 2 days after D 28 (after stopping the treatment),−3.8%
same,"Active sebaceous glands, % Dn/D 0",[4]; D 28,+8.5%
same,volunteers declaring refinement of their skin grain (self-evaluation),Asian volunteers,52%
